Like-named read-outs stand apart in the source and are kept apart here. Blank lines part the entries; values can stand above or below the molecule they belong to.
What was measured:
[1] = tested on: CT26 cells; assay: CT26 cell viability; format: cell-based
[2] = tested on: Kasumi-1 cells; assay: Cell line drug sensitivity (CellTiter-Glo); format: cell-based
Description: (§1) SET-2, RS4;11, and SKM-1 cells were purchased from DSMZ. HL-60, MV4;11, OCI-AML2, NB4, MOLM-13, NOMO-1, DAOY, HEL, IMR-5, K562, Kasumi-1, ONS-76, RDES-1, and TC-71 cells were a gift from Alex Kentsis and verified using STR genotyping (Genetica). […] MCF-7, Jurkat, THP-1, U937, HL-60, MV4;11, OCI-AML2, NB4, MOLM-13, NOMO-1, HEL, K562, SET-2, RS4;11, SKM-1 and Kasumi-1 were grown in RPMI-1640 medium with 10% FBS. All cells were grown at 37° C. in a 5% CO2 incubator. Cell lines were tested for mycoplasma using the MycoAlert Mycoplasma Detection Kit (Lonza).
(§2) Cells were plated (2000 cells/well) in white, 384-well clear bottom plates using an EL406 Microplate Washer/Dispenser (BioTek) in 25 μL final volume of media. Compounds were added using a pintool (CyBio) and cells were incubated for 48 h at 37° C. Assay plates were then removed from the incubator and allowed to equilibrate to room temperature on the bench top before addition of 10 μL of CellTiter-Glo reagent (Promega) according to the manufacturer's instructions. Assay plates were shaken on an orbital shaker for 2 minutes and incubated at room temperature on the bench top for 10 minutes. Luminescence was then read using a Cytation 5 Cell Imaging Multi-Mode Reader (BioTek). (FIG. 6)

[3] = tested on: HEL cells; assay: Cell line drug sensitivity (CellTiter-Glo); format: cell-based
Description: as §1, §2

[4] = tested on: MOLM-13 cells; assay: Cell line drug sensitivity (CellTiter-Glo); format: cell-based
Description: as §1, §2

[5] = tested on: TC-71 cells; assay: Cell line drug sensitivity (CellTiter-Glo); format: cell-based
Description: as §1, §2

[6] = tested on: HL-60 cells; assay: Cell line drug sensitivity (CellTiter-Glo); format: cell-based
Description: as §1, §2

[7] = tested on: Jurkat cells; assay: Cell line drug sensitivity (CellTiter-Glo); format: cell-based; conditions: 48 h
Description: as §1, §2

[8] = tested on: SET-2 cells; assay: Cell line drug sensitivity (CellTiter-Glo); format: cell-based
Description: as §1, §2

[9] = tested on: KG-1 cells; assay: Cell line drug sensitivity (CellTiter-Glo); format: cell-based
Description: as §1, §2

[10] = tested on: NOMO-1 cells; assay: Cell line drug sensitivity (CellTiter-Glo); format: cell-based
Description: as §1, §2

[11] = tested on: K562 cells; assay: Cell line drug sensitivity (CellTiter-Glo); format: cell-based
Description: as §1, §2

[12] = tested on: THP-1 cells; assay: Cell line drug sensitivity (CellTiter-Glo); format: cell-based
Description: as §1, §2

[13] = tested on: MCF7 cells; assay: Cell line drug sensitivity (CellTiter-Glo); format: cell-based
Description: as §1, §2

[14] = tested on: SKM-1 cells; assay: Cell line drug sensitivity (CellTiter-Glo); format: cell-based
Description: as §1, §2

[15] = tested on: U937 cells; assay: Cell line drug sensitivity (CellTiter-Glo); format: cell-based
Description: as §1, §2

[16] = tested on: HT-1080 cells; assay: Cell line drug sensitivity (CellTiter-Glo); format: cell-based
Description: as §1, §2

[17] = tested on: DAOY cells; assay: Cell line drug sensitivity (CellTiter-Glo); format: cell-based; conditions: 48 h
Description: as §1, §2

[18] = tested on: ONS-76 cells; assay: Cell line drug sensitivity (CellTiter-Glo); format: cell-based
Description: as §1, §2

[19] = tested on: OCI-AML3 cells; assay: Cell line drug sensitivity (CellTiter-Glo); format: cell-based
Description: as §1, §2

[20] = tested on: RDES-1 cells; assay: Cell line drug sensitivity (CellTiter-Glo); format: cell-based; conditions: 48 h
Description: as §1, §2

[21] = tested on: IMR-5 cells; assay: Cell line drug sensitivity (CellTiter-Glo); format: cell-based
Description: as §1, §2

[22] = tested on: RS4;11 cells; assay: Cell line drug sensitivity (CellTiter-Glo); format: cell-based
[23] = tested on: AML cell lines; assay: AML cell line sensitivity, summary over the panel; format: cell-based; conditions: all of these lines
Description: as §1, §2

[24] = tested on: MV4;11 cells; assay: Cell line drug sensitivity (CellTiter-Glo); format: cell-based; conditions: Homo sapiens, MV4-11, 48 h
[25] = tested on: NB4 cells; assay: Cell line drug sensitivity (CellTiter-Glo); format: cell-based; conditions: Homo sapiens, NB-4, 48 h
[26] = in comparison to Val-boroPro
[27] = MTD (survival) of ARI-4268; format: in vivo; conditions: without PGE2 inhibitor, compared with Val-boroPro
[28] = tested on: MB49 tumor; assay: MB49 efficacy studies; format: in vivo, C57BL/6 mice
[29] = tested on: PGE2; assay: Peritoneal PGE2 levels after dosing; format: in vivo; conditions: even at substantially higher doses than Val-boroPro
[30] = tested on: G-CSF; assay: Serum cytokine induction in mice (G-CSF screen); format: in vivo, BALB/c mice
Excerpt: No. MKC00B) • IL-18 (R&D Systems, Cat. […] Systems, Cat. No. […])

[31] = tested on: rhabdomyosarcoma; conditions: established rhabdomyosarcoma, preclinical; cited from earlier work

SMILES: CC1([C@H](N)C(=O)N2CCC[C@H]2B(O)O)CCCCC1 (relative stereo) [ARI-4175CH]
EC50 ([1]; Mus musculus, CT26): > 1000 µM
IC50 ([2]; Homo sapiens, Kasumi 1, 48 h): > 60 µM
IC50 ([3]; Homo sapiens, 48 h): > 60 µM
IC50 ([4]; Homo sapiens, MOLM-13, 48 h): 0.006 µM
IC50 ([5]; TC-71, 48 h): > 60 µM
IC50 ([6]; Homo sapiens, HL-60, 48 h): 0.003 µM
IC50 ([7]; Homo sapiens): > 60 µM
IC50 ([8]; Homo sapiens, SET-2, 48 h): 0.001 µM
IC50 ([9]; Homo sapiens, KG-1, 48 h): 0.049 µM
IC50 ([10]; Homo sapiens, NOMO-1, 48 h): 0.004 µM
IC50 ([11]; Homo sapiens, K562, 48 h): > 60 µM
IC50 ([12]; Homo sapiens, THP-1, 48 h): 0.006 µM
IC50 ([13]; Homo sapiens, MCF7, 48 h): > 60 µM
IC50 ([14]; Homo sapiens, SKM-1, 48 h): 0.001 µM
IC50 ([15]; Homo sapiens, U-937, 48 h): > 60 µM
IC50 ([16]; Homo sapiens, HT-1080, 48 h): > 60 µM
IC50 ([17]; Homo sapiens, Daoy): > 60 µM
IC50 ([18]; Homo sapiens, ONS-76, 48 h): > 60 µM
IC50 ([19]; Homo sapiens, OCI-AML-3, 48 h): 0.003 µM
IC50 [20]: > 60 µM
IC50 ([21]; Homo sapiens, IMR-5, 48 h): > 60 µM
IC50 ([22]; Homo sapiens, RS4-11, 48 h): 0.013 µM
IC50 values over the sensitive AML cell lines [23]: low (single digit) nanomolar
IC50 [24]: 0.003 µM
IC50 [25]: 0.003 µM

SMILES: CC(C)(F)[C@H](N)C(=O)N1CCC[C@H]1B(O)O (relative stereo) [ARI-4268]
Oral activity [26]: good oral activity—on par with highly orally active Val-boroPro
MTD (survival) [27]: dramatically increased MTD (survival) without the need for a PGE2 inhibitor
Antitumor activity ([28]; MB49 model, truncated dosing schedules): displays antitumor activity in the MB49 mouse tumor model at doses indicating improved therapeutic index
Peritoneal PGE2 levels [29]: does not induce peritoneal PGE2 levels to the same extent as Val-boroPro

SMILES: N[C@H](C(=O)N1CCC[C@H]1B(O)O)C12CC3CC(CC(C3)C1)C2 (relative stereo) [ARI-5544, Gly(1-adamantyl)-boroPro]
EC50 ([1]; Mus musculus, CT26): > 100 µM
IC50 ([2]; Homo sapiens, Kasumi 1, 48 h): > 60 µM
IC50 ([3]; Homo sapiens, 48 h): > 60 µM
IC50 ([4]; Homo sapiens, MOLM-13, 48 h): 0.005 µM
IC50 ([5]; TC-71, 48 h): > 60 µM
IC50 ([6]; Homo sapiens, HL-60, 48 h): 0.003 µM
IC50 ([7]; Homo sapiens): > 60 µM
IC50 ([8]; Homo sapiens, SET-2, 48 h): 0.0002 µM
IC50 ([9]; Homo sapiens, KG-1, 48 h): 0.005 µM
IC50 ([10]; Homo sapiens, NOMO-1, 48 h): 0.005 µM
IC50 ([11]; Homo sapiens, K562, 48 h): > 60 µM
IC50 ([12]; Homo sapiens, THP-1, 48 h): 0.005 µM
IC50 ([13]; Homo sapiens, MCF7, 48 h): > 60 µM
IC50 ([14]; Homo sapiens, SKM-1, 48 h): 0.0004 µM
IC50 ([15]; Homo sapiens, U-937, 48 h): > 60 µM
IC50 ([16]; Homo sapiens, HT-1080, 48 h): > 60 µM
IC50 ([17]; Homo sapiens, Daoy): > 60 µM
IC50 ([18]; Homo sapiens, ONS-76, 48 h): > 60 µM
IC50 ([19]; Homo sapiens, OCI-AML-3, 48 h): 0.002 µM
IC50 [20]: > 60 µM
IC50 ([21]; Homo sapiens, IMR-5, 48 h): > 60 µM
IC50 values over the sensitive AML cell lines [23]: low (single digit) nanomolar
IC50 [24]: 0.002 µM
IC50 [25]: 0.003 µM

SMILES: NC(N)=NCCC[C@H](N)C(=O)N1CCC[C@H]1B(O)O [Arg-boroPro]
EC50 [1]: > 1000 µM

SMILES: CC(C)C[C@H](NC(=O)[C@H](Cc1ccccc1)NC(=O)c1cnccn1)B(O)O [Bortezomib]
EC50 ([1]; Mus musculus, CT26): 0.036 µM

SMILES: N[C@@H](CCC(=O)O)C(=O)N1CCC[C@H]1B(O)O [Glu-boroPro]
EC50 [1]: > 1000 µM
Average [G-CSF] at 6 hrs ([30]; 20 μg/animal PO): 340 pg/mL
Average [G-CSF] at 6 hrs ([30]; 200 μg/animal PO): 160 pg/mL
Average [G-CSF] at 6 hrs ([30]; 200 μg/animal SC): 210 pg/mL
Average [G-CSF] at 6 hrs ([30]; 2000 μg/animal PO): 2300 pg/mL
Average [G-CSF] at 6 hrs ([30]; 2000 μg/animal SC): 16000 pg/mL

SMILES: N[C@@H](CC(=O)N1CCn2c(nnc2C(F)(F)F)C1)Cc1cc(F)c(F)cc1F [Sitagiptin, Sitagliptin]
Average [G-CSF] at 6 hrs ([30]; 200 μg/animal SC): 100 pg/mL
Average [G-CSF] at 6 hrs ([30]; 1000 μg/animal PO): 340 pg/mL
Average [G-CSF] at 6 hrs ([30]; 2000 μg/animal SC): 950 pg/mL

SMILES: Cc1ccc(-c2cc(C(F)(F)F)nn2-c2ccc(S(N)(=O)=O)cc2)cc1 [celecoxib]
Tumor growth rate ([28]; celecoxib alone, various concentrations): no observed differences in tumor growth rates compared to control

The next lines start with results.

EC50 [1]: > 1000 µM
SMILES: C[C@H](N)C(=S)N1CCC[C@H]1B(O)O [ARI-2243]
Average [G-CSF] at 6 hrs ([30]; 20 μg/animal PO): 330 pg/mL
Average [G-CSF] at 6 hrs ([30]; 50 μg/animal IP): 2100 pg/mL
Average [G-CSF] at 6 hrs ([30]; 100 μg/animal IP): 2400 pg/mL
Average [G-CSF] at 6 hrs ([30]; 300 μg/animal IP): 4400 pg/mL

EC50 [1]: > 1000 µM
IC50 ([4]; MOLM-13, AML M5, 48 h, read-out: IC50): 0.028 µM
IC50 ([6]; HL-60, AML M2, 48 h, read-out: IC50): 0.016 µM
IC50 ([7]; T-ALL, read-out: IC50): > 60 µM
IC50 ([11]; K562, CML/Erythroleukemia, 48 h, read-out: IC50): > 60 µM
IC50 ([12]; THP-1, AML M5, 48 h, read-out: IC50): 0.023 µM
IC50 ([13]; MCF7, Breast, 48 h, read-out: IC50): > 60 µM
IC50 ([14]; SKM-1, AML M5, 48 h, read-out: IC50): 0.007 µM
IC50 ([15]; U937, AML/histiocytic lymphoma M5, 48 h, read-out: IC50): > 60 µM
IC50 ([16]; HT-1080, Fibrosarcoma, 48 h, read-out: IC50): > 60 µM
IC50 ([19]; OCI-AML3, AML M4, 48 h, read-out: IC50): 0.019 µM
IC50 ([22]; RS4;11, AML/B-ALL, 48 h, read-out: IC50): 0.096 µM
SMILES: CC(C)(C)[C@H](N)C(=O)N1CCC[C@H]1B(O)O [ARI-4175, t-butylglycine-boroProline]
IC50 ([2]; Kasumi-1, AML M2, 48 h, read-out: IC50): > 60 µM
IC50 ([3]; AML/Erythroleukemis M6, 48 h, read-out: IC50): > 60 µM
IC50 ([5]; TC-71, Ewing's sarcoma, 48 h, read-out: IC50): > 60 µM
IC50 ([8]; SET-2, AML/MPN, 48 h, read-out: IC50): 0.002 µM
IC50 ([9]; KG-1, AML M0, 48 h, read-out: IC50): 0.035 µM
IC50 ([10]; NOMO-1, AML M5, 48 h, read-out: IC50): 0.03 µM
IC50 ([17]; DAOY, Medulloblastoma, read-out: IC50): > 60 µM
IC50 ([18]; ONS-76, Medulloblastoma, 48 h, read-out: IC50): > 60 µM
IC50 ([20]; RDES-1, Ewing's sarcoma, read-out: IC50): > 60 µM
IC50 ([21]; IMR-5, Neuroblastoma, 48 h, read-out: IC50): > 60 µM
Anti-tumor activity [31]: significant immune-dependent anti-tumor activity
Average [G-CSF] at 6 hrs ([30]; 20 μg/animal PO): 19000 pg/mL
Average [G-CSF] at 6 hrs ([30]; 20 μg/animal SC): 65000 pg/mL

Source: US11583516B2, “Dash inhibitors, and uses related thereto” (Trustees of Tufts College, priority 2016, dated 2023)
